Legend:
SAPK/JNK = test: Aβ25-35-induced SAPK/JNK phosphorylation in N2a cells (ELISA); assay type: cell-based; details: concomitant treatment 30-40 min
Procedure: 7. Measure the amount of total and phosphorylated SAPK/JNK in cell lysates) of N2a cells, by ELISA using the PathScan total SAPK/JNK sandwich ELISA kit (Cell Signaling TECHNOLOGY) and the PathScan phosoho-SAPK/JNK (Thr183/Tyr185) sandwich ELISA kit (Cell Signaling TECHNOLOGY), respectively, according to the manufacturer's instructions. 8. Determine the optical density at 450 nm using a microplate reader.
(§1) N2a cells were treated concomitantly with Aβ25-35 and TIF for 40 min. Cells were extracted and the levels of phosphorylated or total SAPK/JNK were determined by specific ELISA kits. The results are the mean±SEM of two different experiments (n=4) for phosphorylated SAPK/JNK and three different experiments (n=6) for total SAPK/JNK.
as §1, with “achillolide A” for “TIF”
N2a cells were treated concomitantly with Aβ25-35 and memantine for 30 min. Cells were extracted and the levels of phosphorylated SAPK/JNK were determined by a specific ELISA kit. The results are the mean±SEM of one experiment (n=2).

astrocytes = test: H2O2-induced intracellular ROS levels in astrocytes (DCF-DA); assay type: cell-based, rat; details: for ability to reduce H2O2-induced ROS compared among TTF, quercetin and memantine: concentrations higher than 16 μM, ROS after 1 h, p>0.05
Procedure: Intracellular ROS levels were detected using the non-fluorescent cell permeating compound, 2′7′-dichlorofluorescein diacetate (DCF-DA). DCF-DA is hydrolyzed by intracellular esterases and then oxidized by ROS to a fluorescent compound 2′-7′-DCF. Astrocytes were plated onto 24 wells plates (300,000 cells/well) and treated with DCF-DA (20 μM) for 30 min at 37° C. Following incubation with DCF-DA, cultures were rinsed twice with PBS and then re-suspended in DMEM containing 10% FBS, 8.4 mM HEPES, 2 mM glutamine, 100 U/ml penicillin, and 100 μg/mL streptomycin. ROS levels (fluorescence) at time zero were measured in a plate reader with excitation at 485 nm and emission at 520 nm. Astrocytes were then treated with TTF for 2 h before the addition of H2O2 and ROS levels (fluorescence) were measured in a plate reader with excitation at 485 nm and emission at 520 nm every hour for 4 h.
1. Produce a primary culture of rat brain glial cells according to the method described in “Protective effects of the essential oil of salvia fruticosa and its constituents on astrocytic susceptibility to hydrogen peroxide-induced cell death”. 2009. A. Elmann, S. Mordechay, M. Rindner, O. Larkov, M. Elkabetz, U. Ravid. Journal of agricultural and food chemistry. 57(15):6636-41; 2. Separate astrocytes from other cell types in the culture according to the method described in “Protective effects of the essential oil of salvia fruticosa and its constituents on astrocytic susceptibility to hydrogen peroxide-induced cell death”. 2009. A. Elmann, S. Mordechay, M. Rindner, O. Larkov, M. Elkabetz, U. Ravid. Journal of agricultural and food chemistry. 57(15):6636-41; 3. Plate astrocytes (300,000 cells/0.5 ml/well of 24 wells plate) and incubate (37° C., 5% CO2) for 24 hr as described in: Elmann, A., et al., (2011). Extract of Achillea fragrantissima downregulates ROS production and protects astrocytes from oxidative-stress-induced cell death. In: “Neurodegenerative Diseases—Processes, Prevention, Protection and Monitoring”, ISBN 978-953-307-485-6, (Raymond Chuen-Chung Chang, ed). […] Read fluorescence of “time 0” at 485 nm (Extinction) and 528 nm (Emmision). […] Read fluorescence at 1, 2, 3, 4 hr after the addition of H2O2 (Ex: 485 nm and Em: 528 nm). […]
Astrocytes were pre-loaded with DCF-DA for 30 min and washed. […] ROS levels in astrocytes were measured 1 h and 4 h after the application of H2O2. […] H2O2 was added to the culture and the fluorescence intensity representing ROS levels was measured after 1 h. […]
Preloaded astrocytes were then preincubated for 2 h with various concentrations of achillolide A or memantine. H2O2(175 μM) was added and the fluorescence intensity was measured […]. […]

[1] = DPPH free radical scavenging assay; details: cell free; 8 min
Procedure: (§2) Antioxidant activity was measured using the 2,2-diphenyl-1-pieryhydrazyl (DPPH) radical scavenging assay. Different dilutions of TTF (or control drugs) were added to 1 mL of DPPH (3.9 mg/100 mL methanol) in test tubes wrapped in aluminum foil. Absorbance (A) was measured at 517 nm after 8 min incubation in the dark. The scavenging ability (%) of the samples was calculated as (Acontrol−Asample)/Acontrol×100).
as §2, with “achillolide A or quercetin” for “TTF (or control drugs)”
The DPPH scavenging ability of TTF, memantine and quercetin were compared for eight minutes. Results are shown in FIG. 7 and are the mean±SEM of two experiments performed in duplicates (n=4).
The DPPH scavenging ability of achillolide A and quercetin were tested for eight minutes. Values represent the mean±SEM (n=4 for each concentration). **p<0.01; ***p<0.001, compared to a mixture without achillolide A or quercetin.

| Compound | effect on Aβ25-35-induced phosphorylation of SAPK/JNK (SAPK/JNK) | effect on H2O2-induced intracellular ROS levels (astrocytes; 8 μM, H2O2 175 μM, ROS measured 1 h and 4 h after H2O2) | IC50 [1] [µM] | inhibition of DPPH absorbance at 517 nm (maximal scavenging ability) [1] [%] | effect on H2O2-induced ROS production (astrocytes; 2 h preincubation, H2O2 175 μM, fluorescence 20 h later) | ability to reduce H2O2-induced ROS compared among TTF, quercetin and memantine (astrocytes; 2 h preincubation) |
| --- | --- | --- | --- | --- | --- | --- |
| COc1cc(-c2oc3cc(OC)c(OC)c(O)c3c(=O)c2O)ccc1O [TTF, 3,5,4′-trihydroxy-6,7,3′-trimethoxyflavone] | significantly inhibited | inhibited the H2O2-induced elevation of intracellular ROS | 45 | 60 |  |  |
| C=C1CCC2=C(CO)C(=O)O[C@H]2/C=C(\C)[C@H](OC(C)=O)CC1=O [achillolide A] | significantly decreased |  | 45 | 60 | attenuates |  |
| CC12CC3CC(C)(C1)CC(N)(C3)C2 [memantine, reference compound] | down-regulates |  |  | 7 |  | no significant difference |
| O=c1c(O)c(-c2ccc(O)c(O)c2)oc2cc(O)cc(O)c12 [quercetin, 3,3′,4′,5,7-Pentahydroxyflavone, reference compound] |  |  |  | 90 |  | no significant difference |

Source: patent US11752125B2, “Anti-neuroinflammatory and protective compounds in Achillea fragrantissima” (THE STATE OF ISRAEL MINISTRY OF AGRICULTURE & RURAL …, priority 2013, dated 2023)
